In PMC8041284, “Tunable Methacrylamides for Covalent Ligand Directed Release Chemistry” (Journal of the American Chemical Society, 2021) one finds inhibition data, which are given here for 67 molecules.

SMILES strings stand for the structures.

The target of one assay is BTK (Homo sapiens, UniProt Q06187). Kind of assay: biochemical. To be noted: read-out: BTK inhibition (%).
Sequence of BTK (Q06187 402-655 limits assumed): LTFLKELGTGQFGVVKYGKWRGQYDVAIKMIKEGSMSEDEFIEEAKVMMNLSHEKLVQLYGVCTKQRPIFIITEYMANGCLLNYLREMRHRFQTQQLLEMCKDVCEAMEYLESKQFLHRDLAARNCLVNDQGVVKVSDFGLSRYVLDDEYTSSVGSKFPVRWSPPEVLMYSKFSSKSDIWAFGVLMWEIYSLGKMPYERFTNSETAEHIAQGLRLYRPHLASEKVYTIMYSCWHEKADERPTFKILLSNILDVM
Turning to `CCOP(=O)(OCC)C(=Cc1cc(C(C)(C)C)c(O)c(C(C)(C)C)c1)P(=O)(OCC)OCC` [PCM-0215676], the inhibition at 10 µM was -11.6%.

Still in this assay, the particulars now being: read-out: BTK inhibition (%), 0.75 uM BTK, […] probe 3l, 15 min preincubation.
With `COc1ccc(-c2nc(N3CCOCC3)c3sc(CN(C)c4ncc(C(=O)NO)cn4)cc3n2)cn1` [PCM-0095517], the inhibition at 10 µM turned out to be 15.2%.

Regarding `O=c1c(-n2ccnn2)c[nH]n1-c1cc(N2CCOCC2)ncn1` [PCM-0215593], the inhibition at 10 µM was -16.2%.

Regarding `CCC1(c2ccc(N)cc2)CCC(=O)NC1=O` (stereo not shown) [PCM-0064565], the inhibition at 10 µM was -3.4%.

With `CC(C)(C)C(=O)OCOP(=O)(COCCn1cnc2c(N)ncnc21)OCOC(=O)C(C)(C)C` [PCM-0095170], the inhibition at 10 µM is 3.9%.

Regarding `Cc1c(Cl)cccc1Nc1ccccc1C(=O)O` [PCM-0005612], the inhibition at 10 µM is -6.2%.

On to `CCC(=O)O[C@@H]1CC(=O)O[C@H](C)C/C=C/C=C/[C@H](O)[C@H](C)C[C@H](CC=O)[C@H](O[C@@H]2O[C@H](C)[C@@H](O[C@H]3C[C@@](C)(O)[C@@H](OC(=O)CC)[C@H](C)O3)[C@H](N(C)C)[C@H]2O)[C@H]1OC` [PCM-0216255], for which the inhibition at 10 µM is 6.2%.

Regarding `CC(C)CC(=O)Nc1n[nH]c2c1CN(C(=O)C1CCN(C)CC1)C2(C)C` [PCM-0095172], the inhibition at 10 µM was determined as 17.9%.

As for `O=c1cc(-c2ccc(O)c(O)c2)oc2c([C@@H]3O[C@H](CO)[C@@H](O)[C@H](O)[C@H]3O)c(O)cc(O)c12` [PCM-0216392], the inhibition at 10 µM is -22.4%.

In the case of `O=C(NCCN1CCOCC1)c1ccc(Cl)cc1` [PCM-0064796], the inhibition at 10 µM was -3.9%.

On to `C[C@@H]1O[C@@H](OC[C@H]2O[C@@H](Oc3c(-c4ccc(OCCO)c(OCCO)c4)oc4cc(OCCO)cc(O)c4c3=O)[C@H](O)[C@@H](O)[C@@H]2O)[C@H](O)[C@H](O)[C@H]1O` [PCM-0214656], for which the inhibition at 10 µM was -19.5%.

Consider `CC(C)NCC(O)COc1ccc(COCCOC(C)C)cc1` (stereo not shown) [PCM-0064988], for which the inhibition at 10 µM was -31.9%.

On to `O=C(O)c1cc(O)cc(Cl)c1` [PCM-0216556], for which the inhibition at 10 µM was -10%.

With `C[C@@H]1CC[C@H]2[C@@H](C)C(=O)O[C@@H]3O[C@@]4(C)CC[C@@H]1[C@]32OO4` [PCM-0214642], the inhibition at 10 µM came out at 8.6%.

Turning to `CCC(=O)NCC[C@@H]1CCc2ccc3c(c21)CCO3` [PCM-0090528], the inhibition at 10 µM was -20.2%.

Regarding `COc1cc2c(N3CCN(C(=O)Nc4ccc(OC(C)C)cc4)CC3)ncnc2cc1OCCCN1CCCCC1` [PCM-0090254], the inhibition at 10 µM is -17%.

Take `CCC(CC)n1ccc2c(C(=O)NCc3c(C)cc(C)[nH]c3=O)cc(C#N)cc21` [PCM-0215402]: the inhibition at 10 µM was found to be 1.5%.

Regarding `CCCOC(=O)c1ccc(O)cc1` [PCM-0216242], the inhibition at 10 µM was -6.2%.

For the molecule `Cc1cccc(N(C)C(=S)Oc2ccc3ccccc3c2)c1` [PCM-0007505], the inhibition at 10 µM amounted to 4.7%.

With `CCn1c2ccccc2c2cc(CNCc3ccccc3OC)ccc21` [PCM-0215626], the inhibition at 10 µM was -27.8%.

In the case of `C[C@H]1[C@H](C)CC[C@]2(C(=O)O[C@@H]3O[C@H](CO[C@@H]4O[C@H](CO)[C@@H](O[C@@H]5O[C@@H](C)[C@H](O)[C@@H](O)[C@H]5O)[C@H](O)[C@H]4O)[C@@H](O)[C@H](O)[C@H]3O)CC[C@]3(C)C(=CC[C@@H]4[C@@]5(C)C[C@@H](O)[C@H](O)[C@@](C)(CO)[C@@H]5[C@H](O)C[C@]43C)[C@H]12` [PCM-0215102], the inhibition at 10 µM worked out at 10.1%.

With `C=CC(=O)N[C@H]1CCOC[C@H]1Nc1ncc2cc(-c3c(Cl)c(OC)cc(OC)c3Cl)ccc2n1` [PCM-0215807], the inhibition at 10 µM stood at 22.1%.

For `CC(=O)Cc1cc(=O)c2c(C)cc(O)c([C@@H]3O[C@H](CO)[C@@H](O)[C@H](O)[C@H]3O)c2o1` [PCM-0216524], the inhibition at 10 µM is 3.9%.

As for `COc1cc2c(=O)c(-c3ccc(O)cc3)coc2cc1O` [PCM-0216399], the inhibition at 10 µM stood at 6.2%.

Regarding `O=P(O)(O)C(Cl)(Cl)P(=O)(O)O` [PCM-0065307], the inhibition at 10 µM is -23.8%.

As for `CNC(=O)c1ccc(-c2cnc3ncc(Cc4ccc5ncccc5c4)n3n2)cc1F` [PCM-0095370], the inhibition at 10 µM is -24.7%.

Take `C[C@@H](C(=O)Nc1ccc(Cl)cc1)C1CCC(c2ccnc3ccc(F)cc23)CC1` (stereo partly shown) [PCM-0216246]: the inhibition at 10 µM worked out at 27%.

`CCCCCCCCCC[C@H](C(=O)O)[C@]1(C(=O)O)CCC(=O)O1` [PCM-0215979]: the inhibition at 10 µM turned out to be 17.8%.

Regarding `Nc1nc(NC2CC2)c2ncn([C@H]3C=C[C@@H](CO)C3)c2n1` [PCM-0086436], the inhibition at 10 µM was determined as 9.4%.

Take `O=C(Nc1cc(Cl)cc(Cl)c1O)c1c(O)c(Cl)cc(Cl)c1Cl` [PCM-0215152]: the inhibition at 10 µM turned out to be 18.5%.

As to `COc1ccc(COc2cc3oc(=O)c4cc(C(C)O)ccc4c3cc2OC)cc1` (stereo not shown) [PCM-0095280], the inhibition at 10 µM stood at 15.2%.

As to `NC(=O)N1c2ccccc2C=Cc2ccccc21` [PCM-0064618], the inhibition at 10 µM turned out to be 9.3%.

On to `CC1CC(=O)c2c(ccc3c2C(=O)c2cccc(O)c2C3=O)C1` (stereo not shown) [PCM-0215599], for which the inhibition at 10 µM was -3.1%.

For the molecule `COc1nc(C)nc(Cl)c1NC1=NCCN1` [PCM-0065456], the inhibition at 10 µM is 0.8%.

As to `NS(=O)(=O)Cc1noc2ccccc12` [PCM-0214625], the inhibition at 10 µM was -14.8%.

For `CC(C)(C)c1cnc(CSc2cnc(NC(=O)C3CCNCC3)s2)o1` [PCM-0094965], the inhibition at 10 µM was -6.2%.

As for `O=C1C2=C(CCN(Cc3ccccc3)C2)N2CCN=C2N1Cc1ccc(C(F)(F)F)cc1` [PCM-0215923], the inhibition at 10 µM was determined as 2.3%.

On to `OC[C@H]1O[C@@H](OCCc2ccc(O)cc2)[C@H](O)[C@@H](O)[C@@H]1O` [PCM-0094523], for which the inhibition at 10 µM was -13.2%.

Consider `CCC(C)CC(C)CCCCCCCCC(=O)N[C@H]1C[C@@H](O)[C@@H](NCCN)NC(=O)[C@@H]2[C@@H](O)CCN2C(=O)[C@H]([C@H](O)CCN)NC(=O)[C@H]([C@H](O)[C@@H](O)c2ccc(O)cc2)NC(=O)[C@@H]2C[C@@H](O)CN2C(=O)[C@H]([C@@H](C)O)NC1=O` (stereo partly shown) [PCM-0215354], for which the inhibition at 10 µM came to 11.1%.

For `C=C1C[C@@]2(O)O[C@@]3(C[C@H]2C(C)C)[C@@H](C)CC[C@@H]13` [PCM-0214683], the inhibition at 10 µM was -1.6%.

Consider `Nc1nc(=S)c2[nH]cnc2[nH]1` [PCM-0090185], for which the inhibition at 10 µM was -1.6%.

On to `CC1CCc2cc(F)cc3c(=O)c(C(=O)O)cn1c23` (stereo not shown) [PCM-0085858], for which the inhibition at 10 µM was -10.1%.

Take `CN(C)c1ccc(C(=C2C=CC(=[N+](C)C)C=C2)c2ccc(N(C)C)cc2)cc1` [PCM-0090111]: the inhibition at 10 µM was 116%.

For the molecule `COc1ccc(C(=O)CC(=O)c2ccc(C(C)(C)C)cc2)cc1` [PCM-0090378], the inhibition at 10 µM was -3.9%.

For the molecule `CC(C)n1cnc2c(NCCc3ccc(O)cc3)nc(-c3csc4ccccc34)nc21` [PCM-0095500], the inhibition at 10 µM worked out at 34.2%.

In the case of `CN[C@@H](C)C(=O)N[C@H](C(=O)N1CCC[C@H]1C(=O)Nc1snnc1-c1ccccc1)C1CCCCC1` [PCM-0215217], the inhibition at 10 µM is -17%.

`COc1cccc2cc(-c3nc(C4CCC(C(=O)O)CC4)n4ncnc(N)c34)[nH]c12` (stereo not shown) [PCM-0095482]: the inhibition at 10 µM stood at 28.3%.

Take `N[C@@H](CO)C(=O)O` [PCM-0216618]: the inhibition at 10 µM was found to be 4.3%.

As for `CN(C)CCc1c[nH]c2ccc(Cn3cncn3)cc12` [PCM-0090241], the inhibition at 10 µM is -3.1%.

Regarding `CNC(=O)c1ccc2cc([C@@]3(O)CCn4cncc43)ccc2c1` [PCM-0095080], the inhibition at 10 µM was 3.1%.

Consider `COc1ccc(Cl)c(Nc2nc3ccccc3nc2NS(=O)(=O)c2cccc(NC(=O)C(C)(C)N)c2)c1` [PCM-0215473], for which the inhibition at 10 µM was 24.1%.

In the case of `O=C1C[C@@H](c2ccc(O)c(O)c2)Oc2cc(O)cc(O)c21` [PCM-0216409], the inhibition at 10 µM is 29.3%.

On to `NC(=O)c1ccc[n+]([C@@H]2O[C@H](COP(=O)([O-])OP(=O)(O)OC[C@H]3O[C@@H](n4cnc5c(N)ncnc54)[C@H](O)[C@@H]3O)[C@@H](O)[C@H]2O)c1` [PCM-0090146], for which the inhibition at 10 µM is -13.6%.

On to `COC(=O)C1=C(C)NC(C)=C(C(=O)OCCN(C)Cc2ccccc2)C1c1cccc([N+](=O)[O-])c1` (stereo not shown) [PCM-0064729], for which the inhibition at 10 µM turned out to be 47.5%.

As to `CCCCCCCCCCCCCC(=O)OCC(COC(=O)CCCCCCCCCCCCC)OC(=O)CCCCCCCCCCCCC` [PCM-0216465], the inhibition at 10 µM is -18.7%.

On to `Cc1ccc(-n2sc(=O)n(Cc3ccc(F)cc3)c2=O)cc1` [PCM-0095367], for which the inhibition at 10 µM was -12.5%.

As to `Cc1cc(SCc2sc(-c3ccc(C(F)(F)F)cc3)nc2C)ccc1OCC(=O)O` [PCM-0215226], the inhibition at 10 µM turned out to be 23.9%.

Regarding `C=CC(=O)Nc1ccc2ncnc(Nc3ccc(OCc4cccc(F)c4)c(Cl)c3)c2c1` [PCM-0095229], the inhibition at 10 µM was 110%.

On to `CCCc1ccc(OCC(=O)N(Cc2nc(-c3cccnc3)no2)C(C)C)cc1` [PCM-0215326], for which the inhibition at 10 µM was -16.2%.

Turning to `CN1CCN(CCCN2c3ccccc3Sc3ccc(C(F)(F)F)cc32)CC1` [PCM-0064852], the inhibition at 10 µM was -4.7%.

As to `C=C[C@@](C)(/C=C/c1ccc(O)cc1)CCC=C(C)C` [PCM-0094651], the inhibition at 10 µM is 6.9%.

Take `C[C@@H](OC[C@@]1(c2ccccc2)CC[C@]2(CCC(=O)N2)CN1)c1cc(C(F)(F)F)cc(C(F)(F)F)c1` [PCM-0216647]: the inhibition at 10 µM is -48.6%.

Turning to `CNC(=O)c1ccc(N2C(=S)N(c3ccc(C#N)c(C(F)(F)F)c3)C(=O)C2(C)C)cc1F` [PCM-0095003], the inhibition at 10 µM is -10.3%.

As for `O=C(O)[C@@]1(CCCCCCOc2ccc(Cl)cc2)CO1` [PCM-0215742], the inhibition at 10 µM is -1.5%.

In the case of `CC(C)CCCC(C)CCCC(C)CCCCC(C)CCCC(C)CCCC(C)C` (stereo not shown) [PCM-0216154], the inhibition at 10 µM came out at 8.5%.

Regarding `COc1ccc([C@@H]2CC(=O)c3c(O)cc(O[C@@H]4O[C@H](CO[C@@H]5O[C@@H](C)[C@H](O)[C@@H](O)[C@H]5O)[C@@H](O)[C@H](O)[C@H]4O)cc3O2)cc1O` [PCM-0214677], the inhibition at 10 µM was -7%.

Consider `OC[C@H]1O[C@@](CO)(OC[C@@]2(O[C@H]3O[C@H](CO)[C@@H](O)[C@H](O)[C@H]3O)O[C@H](CO)[C@@H](O)[C@@H]2O)[C@@H](O)[C@@H]1O` [PCM-0216401], for which the inhibition at 10 µM was 21.6%.
